Here are results for 5 molecules from article PMC8484451, “Characterization of fluorescent probe substrates to develop an efficient high-throughput assay for neonatal hepatic CYP3A7 inhibition screening” (Scientific Reports, 2021).

Series [1] addresses T1, CYP3A7 (Homo sapiens, UniProt P24462).
T1 construct: recombinant human CYP3A7 Supersomes (Sf9 insect cell microsomes); with human NADPH-cytochrome P450 reductase and human cytochrome b5 (co-expressed)
Put plainly: fluorescent DBF O-debenzylation inhibition assay with recombinant CYP3A7. Type of series: biochemical.

Series [2] has as its target T1, CYP3A7. Put plainly: fluorescent DBF inhibition assay at […]. Format: biochemical. As to conditions: read-out: % inhibition at 20 μM.
Series [3] addresses T1, CYP3A7. Description: Michaelis-Menten kinetics (fluorescence). As to conditions: read-out: DBOMF. Type of series: biochemical.
Substrate in series [4]: c1ccc(COc2ccc3cccnc3c2)cc1
Put plainly: Michaelis-Menten kinetics (fluorescence). Format: biochemical, Homo sapiens. As to conditions: NADPH.

Substrate in series [5]: O=C(OCc1ccccc1)c1ccccc1-c1c2ccc(=O)cc-2oc2cc(OCc3ccccc3)ccc12
Description: Michaelis-Menten kinetics (fluorescence); metabolites by LC-MS/MS. Type of series: biochemical, Homo sapiens. As to conditions: NADPH likely binds in the CYP3A7 active site mirroring native substrates.

In the case of `C[C@]12CC[C@H](OS(=O)(=O)O)CC1=CC[C@@H]1[C@@H]2CC[C@]2(C)C(=O)CC[C@@H]12` [DHEA-S], on CYP3A7 [1], the IC50 was 5.31 µM.

In the case of `CC(C)CN(C[C@@H](O)[C@H](Cc1ccccc1)NC(=O)O[C@H]1CO[C@H]2OCC[C@H]21)S(=O)(=O)c1ccc(N)cc1` [Darunavir], on CYP3A7 [2], the inhibition at 20 µM is > 75%.

`O=C(OCOCc1ccccc1)c1ccccc1-c1c2ccc(=O)cc-2oc2cc(OCOCc3ccccc3)ccc12` [DBOMF, dibenzyloxymethylfluorescein]: on CYP3A7 [3], the Km turned out to be 1.62 µM.

Consider `Cc1c(O)cccc1C(=O)N[C@@H](CSc1ccccc1)[C@H](O)CN1C[C@H]2CCCC[C@H]2C[C@H]1C(=O)NC(C)(C)C` [Nelfinavir], for which the inhibition at 20 µM at CYP3A7 [2] was > 75%.

B1: CYP3A7 (Homo sapiens) (protein)
chain: MDLIPNLAVETWLLLAVSLILLYLYGTRTHGLFKKLGIPGPTPLPFLGNALSFRKGYWTFDMECYKKYRKVWGIYDCQQPMLAITDPDMIKTVLVKECYSVFTNRRPFGPVGFMKNAISIAEDEEWKRIRSLLSPTFTSGKLKEMVPIIAQYGDVLVRNLRREAETGKPVTLKHVFGAYSMDVITSTSFGVSIDSLNNPQDPFVENTKKLLRFNPLDPFVLSIKVFPFLTPILEALNITVFPRKVISFLTKSVKQIKEGRLKETQKHRVDFLQLMIDSQNSKDSETHKALSDLELMAQSIIFIFAGYETTSSVLSFIIYELATHPDVQQKVQKEIDTVLPNKAPPTYDTVLQLEYLDMVVNETLRLFPVAMRLERVCKKDVEINGMFIPKGVVVMIPSYVLHHDPKYWTEPEKFLPERFSKKNKDNIDPYIYTPFGSGPRNCIGMRFALVNMKLALVRVLQNFSFKPCKETQIPLKLRFGGLLLTEKPIVLKAESRDETVSGA
notes: recombinant human CYP3A7 Supersomes (Sf9 insect cell microsomes); with human NADPH-cytochrome P450 reductase and human cytochrome b5 (co-expressed)
In the case of B1, the results for the Km in series [4] and in series [5] were 0.913 µM and 0.525 µM, respectively. Besides, the values for the kcat in series [4] and in series [5] were 0.0217 s⁻¹ and 0.00247 s⁻¹, respectively.
